Results as given in US20050037335A1, “Method for identifying novel transcriptional regulatory proteins” (priority 1999, published 2005).

Legend:
[1] = molecular target: T1, tTA (Wildtype) (Escherichia coli, UniProt P04483); assay: Inducer-dependent repression of luciferase activity by tTA, transient transfection in HeLa cells; type: cell-based
T1 construct: expressed in transfected cells; host or cells: HeLa cells, transient transfection

[2] = molecular target: T2, tTA-45 (L170V) (Escherichia coli, UniProt P04483, L170V); assay: Inducer-dependent repression of luciferase activity by tTA-45, transient transfection in HeLa cells; type: cell-based
T2 construct: expressed in transfected cells; host or cells: HeLa cells, transient transfection
Experimental: One mutant that was isolated from this screen, tTA-45, was sequenced and found to carry an amino acid exchange at position 170 from a leucine to a valine (L170V). The induction efficiency of tTA-45 in response to varying concentrations of Tc or Dox was determined in transient transfection assays in HeLa cells. The inducer concentration leading to 50% repression of the luciferase activity (IC50) was determined and is described in Table 3 below.

T2 sequence (P04483 other isoform, or with tags, fused parts or gaps L170V): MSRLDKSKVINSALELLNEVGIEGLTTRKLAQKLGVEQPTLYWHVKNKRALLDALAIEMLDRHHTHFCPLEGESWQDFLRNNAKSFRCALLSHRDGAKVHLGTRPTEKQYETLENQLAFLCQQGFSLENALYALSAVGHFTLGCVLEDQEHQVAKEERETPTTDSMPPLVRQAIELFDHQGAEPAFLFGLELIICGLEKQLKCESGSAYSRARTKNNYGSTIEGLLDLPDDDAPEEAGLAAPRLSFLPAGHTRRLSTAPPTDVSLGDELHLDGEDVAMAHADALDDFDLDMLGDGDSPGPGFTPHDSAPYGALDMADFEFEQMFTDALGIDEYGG
T1 sequence (P04483 whole entry, added parts left off): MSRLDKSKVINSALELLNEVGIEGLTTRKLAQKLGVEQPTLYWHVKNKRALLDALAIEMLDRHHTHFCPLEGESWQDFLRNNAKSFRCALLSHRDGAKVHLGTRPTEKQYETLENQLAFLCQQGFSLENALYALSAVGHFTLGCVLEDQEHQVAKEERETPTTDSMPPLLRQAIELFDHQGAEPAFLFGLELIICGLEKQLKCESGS

Question: Which IC50 [1] does the source give for `C[C@H]1c2cccc(O)c2C(=O)C2=C(O)[C@]3(O)C(=O)C(C(N)=O)=C(O)[C@@H](N(C)C)[C@@H]3[C@@H](O)[C@@H]21` [Dox, doxycycline] here?
Answer: Its IC50 is 1.35 nM.

Question: And the IC50 [2]?
Answer: Its IC50 is 11.3 nM.

Question: What does the source list for `CN(C)[C@@H]1C(O)=C(C(N)=O)C(=O)[C@@]2(O)C(O)=C3C(=O)c4c(O)cccc4[C@@](C)(O)[C@H]3C[C@@H]12` [Tc, tetracycline]?
Answer: IC50 [1]: 6.75 nM; IC50 [2]: 608 nM
